Experimental data taken from patent EP4772509A1, “KINESIN KIF18A INHIBITOR, AND APPLICATION THEREOF” (Shanghai Apeiron Therapeutics Company Limited, priority 2023, dated 2025).
Read-outs that look alike come from different tables or passages of the source.

Tests used:
[1] = test system: HT29 cells; test: CyQuant cell proliferation activity test; format: cell-based; settings: HT29 at 2000 cells per well, 3 days, 0.2% DMSO, XLFIT
How it was run: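 Cells seeded at 2000/well in RPMI-1640 with 10% FBS, left overnight, then exposed 3 days at 37 °C, 5% CO2 to a 9-point 3-fold series from 3000 nM (0.2% DMSO). CyQuant signal read after 1 h; IC50 from curve fit.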

[2] = molecular target: T1, Human KIF18A (amino acid sequence 1-417) (Homo sapiens, UniProt Q8NI77); test: Enzymatic activity test (ADP-Glo, microtubule-stimulated ATPase); format: biochemical; settings: 60 µg/mL microtubules, 25 µM ATP, 2.5 nM KIF18A protein, 120 min at ambient temperature, chemiluminescence; read-out: KIF18A IC50
T1 construct: purchased Viva Biotech (Shanghai) Ltd
T1 sequence (Q8NI77 1-417): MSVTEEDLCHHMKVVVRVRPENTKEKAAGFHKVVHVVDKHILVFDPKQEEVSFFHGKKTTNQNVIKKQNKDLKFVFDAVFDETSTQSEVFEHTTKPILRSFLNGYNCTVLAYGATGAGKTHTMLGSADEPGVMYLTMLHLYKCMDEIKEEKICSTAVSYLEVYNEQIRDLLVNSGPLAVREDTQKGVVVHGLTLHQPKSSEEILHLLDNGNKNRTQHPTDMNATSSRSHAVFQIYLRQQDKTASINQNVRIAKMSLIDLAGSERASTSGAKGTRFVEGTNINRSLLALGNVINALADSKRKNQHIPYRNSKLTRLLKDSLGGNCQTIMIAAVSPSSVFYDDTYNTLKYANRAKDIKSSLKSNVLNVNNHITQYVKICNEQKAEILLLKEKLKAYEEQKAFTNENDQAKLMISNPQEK
How it was run: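 Compounds (0-10 µM final, from 10 mM DMSO stock) were incubated 120 min at room temperature with 2.5 nM KIF18A 1-417, 25 µM ATP and 60 µg/mL microtubules. ATPase output was measured as ADP via ADP-Glo luminescence.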

[3] = test system: OVCAR3 cells; test: Cell proliferation activity test (CyQUANT Direct); format: cell-based; settings: 3 days, 0.2% DMSO, CyQUANT fluorescence
How it was run: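 OVCAR3 cells in RPMI-1640 with 10% FBS were seeded, then treated overnight later with compound at final 0–10 µM (0.2% DMSO) for 3 days at 37°C, 5% CO2. Proliferation was read as CyQUANT Direct fluorescence after 60 min at 37°C.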

Compound	IC50 ([1]; Homo sapiens, HT-29, 72 h) [nM]	IC50 [2] [nM]	IC50 ([3]; Homo sapiens, OVCAR-3, 72 h) [nM]	IC50 ([1]; read-out: HT-29 IC50) [nM]	IC50 [3] [nM]
Cc1cc2nc(n1)N1CCC(F)(F)C(/C=C/CC3CCN(CC3)c3cc(NS(=O)(=O)CCO)c(C(=O)C4CC4)cc3-n3cc-2nn3)C1 (stereo not drawn) [Example 89, N-((3^4Z,7E)-4^5-(cyclopropanecarbonyl)-1^4,1^4-difluoro-2^6-methyl-3^1H-2(2,4)-pyrimidin-1(1,3),5(1,4)-dipiperidin-3(4,1) -triazole-4(1,2)-benzocyclooct-7-en-4^4-yl)-2-hydroxyethane-1-sulfonamide]	173	1700	171	–	–
Cc1cc2nc(n1)N1CCC(F)(F)C(C=CCC3CCN(CC3)c3cc(NS(=O)(=O)CCO)c4c(c3C(=O)N2)CNC4=O)C1 (stereo not drawn) [Example 16, N-(6^4,6^4-difluoro-5^6-methyl-2^1,3-dioxo-2^2,2^3-dihydro-2^1H-4-aza-2(5,4)-isoindole-5(4,2)-pyrimidin-1(1,4),6(1,3)-dipiperidineheterocyclonon-7-en-2^7-yl)-2-hydroxyethane-1-sulfonamide]	–	45	–	95	89
Cc1cc2nc(n1)N1CCC(F)(F)C(CCCc3ccc(cc3)-c3cc(NS(=O)(=O)CCO)ccc3C(=O)N2)C1 (stereo not drawn) [Example 44, N-((1^3S,Z)-1^4,1^4-difluoro-2^6-methyl-3^1H-2(2,4)-pyrimidin-1(1,3),5(1,4)-dipiperidin-3(4,1)-triazole-4(1,2)-benzylcyclooctyl-4^4-yl)-2-hydroxyethane-1-sulfonamide]	39	83	27	–	–
Cc1cc2nc(n1)N1CCC(F)(F)C(/C=C\CC3CCN(CC3)c3cc(NS(=O)(=O)CCO)c4c(c3C(=O)N2)OCC4=O)C1 (stereo not drawn) [Example 14B, N-(1^4,1^4-difluoro-2^6-methyl-5^3,4-dioxo-5^2,5-dihydro-3-aza-2(2,4)-pyrimidin-1(1,3),6(1,4)-dipiperidin-5(7,6)-benzofurancyclononane-8-en-5^4-yl)-2-hydroxyethane-1-sulfonamide]	> 3000	307	> 3000	–	–
N-(1^4,1^4,5^1,5^1-tetrafluoro-2^6-methyl-4-dioxo-5^2,5^3-dihydro-5^1H-3-aza-2(2,4)-pyrimidin-1(1,3),6(1,4)-dipiperidin-5(4,5)-benzofurancyclononane-8-en-5^7-yl)-ethanesulfonamide [Example 20]	–	410	–	69	57
Cc1cc2nc(n1)N1CCC(F)(F)C(/C=C/CC3CCN(CC3)c3cc(NS(=O)(=O)CCO)c4c(c3C(=O)N2)CCNC4=O)C1 (stereo not drawn) [Example 17, N-(6^4,6^4-difluoro-5^6-methyl-2^1,3-dioxo-2^1,2^2,2^3,2^4-tetrahydro-4-aza-2(6,5)-isoquinoline-5(4,2)-pyrimidin-1(1,4),6(1,3)-dipiperidinylcyclononane-7-en-2^8-yl)-2-hydroxyethane-1-sulfonamide]	105	52	96	–	–
Cc1cc2nc(n1)N1CCC(F)(F)C(/C=C/CC3CCN(CC3)c3cc(NS(=O)(=O)CCO)c4ccccc4c3C(=O)N2)C1 (single isomer, unassigned) [Example 1D, (trans)-N-(1^4,1^4-difluoro-2^6-methyl-4-oxo-3-aza-2(2,4)-pyrimidin-1(1,3),6(1,4)-dipiperidin-5(1,2)-naphthacyclonon-8-en-5 ^4-yl)-2-hydroxyethane-1-sulfonamide]	–	211	–	137	137
Cc1cc2nc(n1)N1CCC(F)(F)C(/C=C\CC3CCN(CC3)c3cc(NS(=O)(=O)CCO)c4ccccc4c3C(=O)N2)C1 (single isomer, unassigned) [Example 1A, (cis)-N-(1^4,1^4-difluoro-2^6-methyl-4-oxo-3-aza-2(2,4)-pyrimidin-1(1,3),6(1,4)-dipiperidin-5(1,2)-naphthacyclonon-8-en-5^4-yl)-2-hydroxyethane-1-sulfonamide]	–	> 3000	–	2790	2790
CC(=O)c1cc2c(cc1NS(=O)(=O)CCO)N1CCC(C/C=C/C3CN(CCC3(F)F)c3nc(C)cc(n3)-c3cn-2nn3)CC1 (racemic) [Example 88, N-((3^4Z,7E)-4^5-acetyl-1^4,1^4-difluoro-2^6-methyl-3^1H-2(2,4)-pyrimidin-1(1,3),5(1,4)-dipiperidin-3(4,1)-triazole-4(1,2)-benzocyclooct-7-en-4^4-yl)-2-hydroxyethane-1-sulfonamide]	> 3000	> 3000	> 3000	–	–
Cc1cc2nc(n1)N1CCC(F)(F)C(CCCc3ccc(cc3)-c3cc(NS(=O)(=O)CCO)ccc3C(=O)N2)C1 (single isomer, unassigned) [Example 46A, N-(1^4,1^4-difluoro-2^6-methyl-4-oxo-3-aza-2(2,4)-pyrimidin-1(1,3)-piperidin-5(1,2),6(1,4)-diphenylheterocyclononane-5^4-yl)-2-hydroxyethane-1-sulfonamide]	58	117	36	–	–
Cc1cc2nc(n1)N1CCC(F)(F)C(CCCc3ccc(nc3)-c3cc(NS(=O)(=O)CCO)ccc3C(=O)N2)C1 (stereo not drawn) [Example 49, N-(1^4,1^4-difluoro-2^6-methyl-4-oxo-3-aza-2(2,4)-pyrimidin-6(2,5)-pyridin-1(1,3)-piperidin-5(1,2)-phenylheterocyclononane-5^4-yl)-2-hydroxyethane-1-sulfonamide]	1310	187	1080	–	–
Cc1cc2nc(n1)N1CCC(F)(F)C(C=CCC3=CC=C(S3)c3cc(NS(=O)(=O)CCO)ccc3C(=O)N2)C1 (stereo not drawn) [Example 57, N-(1^4,1^4-difluoro-2^6-methyl-4-oxo-3-aza-2(2,4)-pyrimidin-1(1,3)-piperidin-6(2,5)-thiophene-5(1,2)-benzoazacyclon-8-en-5^4-yl)-2-hydroxyethane-1-sulfonamide]	22	52	119	–	–
Cc1cc2nc(n1)N1CCC(F)(F)C(/C=C/CC3CCN(CC3)c3cc(NS(=O)(=O)CCO)c(C(=O)O)cc3-n3cc-2nn3)C1 (stereo not drawn) [Example 91, 1^4,1^4-difluoro-4^4-((2-hydroxyethyl)sulfonamido)-2^6-methyl-3^1H-2(2,4)-pyrimidin-1(1,3),5(1,4)-dipiperidin-3(4,1)-triaz ole-4(1,2)-benzocyclooct-7-en-4^5 carboxylic acid]	> 3000	37	> 3000	–	–

Other lines, results leading:

IC50 ([1]; Homo sapiens, HT-29, 72 h) [nM]	IC50 [2] [nM]	IC50 ([3]; Homo sapiens, OVCAR-3, 72 h) [nM]	IC50 ([1]; read-out: HT-29 IC50) [nM]	IC50 [3] [nM]	Compound
–	9	–	192	112	COc1cc2nc(n1)N1CCC(F)(F)C(CCCc3ccc(cc3)-c3cc(NS(=O)(=O)CCO)ncc3C(=O)N2)C1 (single isomer, unassigned) [Example 56B, N-(1^4,1^4-difluoro-2^6-methoxy-4-oxo-3-aza-2(2,4)-pyrimidin-5(3,4)-pyridin-1(1,3)-piperidin-6(1,4)-benzoazacyclononane-5^6-yl)-2-hydroxyethane-1-sulfonamide]
–	405	–	164	173	Methyl(3^4Z,7Z)-1^4,1^4-difluoro-4^4-((2-hydroxyethyl)sulfonamido)-2^6-methyl 3^1H-2(2,4)-pyrimidin-1(1,3),5(1,4)-dipiperidin-3(4,1)-triazole-4(1,2)-benzocyclooct-7-en-4^5 carboxylate [Example 92B]
–	219	–	23	22	N-((3^4Z, 7Z)-1^4,1^4-difluoro-2^6-methyl-3^1H-2(2,4)-pyrimidin-1(1,3),5(1,4)-dipiperidin-3(4,1)-triazole-4(1,2)-benzocyclooct-7-en-4^4-y 1)-2-hydroxyethane-1-sulfonamide [Example 81A]
378	41	188	–	–	COc1cc2nc(n1)N1CCC(F)(F)C(CCCc3ccc(cc3)-c3cc(NS(=O)(=O)CCO)ncc3C(=O)N2)C1 (single isomer, unassigned) [Example 56A, N-(1^4,1^4-difluoro-2^6-methoxy-4-oxo-3-aza-2(2,4)-pyrimidin-5(3,4)-pyridin-1(1,3)-piperidin-6(1,4)-benzoazacyclononane-5^6-yl)-2-hydroxyethane-1-sulfonamide]
39	60	114	–	–	Cc1cc2nc(n1)N1CCC(F)(F)C(C=CCC3=CC=C(S3)c3cc(NS(=O)(=O)CCO)ccc3C(=O)N2)C1 (single isomer, unassigned) [Example 57A, N-(1^4,1^4-difluoro-2^6-methyl-4-oxo-3-aza-2(2,4)-pyrimidin-1(1,3)-piperidin-6(2,5)-thiophene-5(1,2)-benzoazacyclon-8-en-5^4-yl)-2-hydroxyethane-1-sulfonamide]
